# Source: patent US9358276B2, “Methods of diagnosing and treating small intestinal bacterial overgrowth (SIBO) and SIBO-related conditions” (Cedars-Sinai Medical Center, priority 1999, dated 2016)
# Columns and labels:
# [1] = system: release of 5-HT from the proximal gut; assay: 5-HT released by the proximal gut (ELISA of mid-gut fistula output); format: in vivo, dog; conditions: for amount of 5-HT released by the proximal gut: n=1
# Protocol: To test the hypothesis that fat in the distal gut causes the release of 5-HT in the proximal gut, the amount of 5-HT collected from the output of the mid-gut fistula (proximal gut 5-HT) over a 90-minute period of buffer perfusion through both the duodenal and mid-gut fistulas (2 mL/min); buffer (control) or oleate (60 mM) was administered to the distal gut (n=1). The amount of 5-HT was determined using an ELISA kit specific for 5-HT (Sigma; Graham-Smith, D. G., The carcinoid syndrome, In: Topics in Gastroenterology, Truclove, S. C. and Lee, E. (eds.), Blackwells, London, p. 275 [1977]; Singh, S. M. et al., Concentrations of serotonin in plasma-a test for appendicitis?, Clin. Chem. 34:2572-2574 [1988]). The amount of 5-HT released by the proximal gut increased in response to fat in the distal gut from 100 μg in the control (buffer minus oleate) to 338 μg (buffer plus oleate to distal gut), showing that 5-HT is released in the proximal gut in response to fat in the distal gut. Thus, the release of 5-HT by the proximal gut can serve as a relayed signal for fat in the distal gut. The relayed release of 5-HT in the proximal gut in response to fat in the distal gut is consistent with Example 14(2), showing that slowing of intestinal transit by fat depends on an efferent 5-HT-mediated pathway to the proximal gut.
# To test the hypothesis that 5-HT in the distal gut causes the release of 5-HT in the proximal gut, the amount of 5-HT collected from the output at the mid-gut fistula (Proximal gut 5-HT) over a 90-minute period of buffer perfusion through both the duodenal and mid-gut fistulas (2 mL/min each) was compared in the presence or absence of 5-HT (0.05 mg/kg/h) administered to the distal gut (n=1). 5-HT concentration was determined using an ELISA kit specific for 5-HT (Sigma). The amount of 5-HT released by the proximal gut increased from 156 μg in the control (minus distal 5-HT) to 450 μg (plus 5-HT to distal gut), implying that 5-HT is released by the proximal gut in response to 5-HT in the distal gut. Thus, the release of 5-HT by the proximal gut can serve as a relayed signal for distal gut 5-HT. This relayed release of 5-HT in the proximal gut explains the results of Example 14(6) showing that the slowing of intestinal transit by distal gut 5-HT was abolished by ondansetron in the proximal gut (efferent limb of response) as well as in the distal gut (afferent limb of response).
# To test the hypothesis that the proximal gut releases 5-HT in response to lipid in the distal gut, we compared the amount of 5-HT in the output of the midgut fistula (i.e., proximal gut 5-HT) with buffered saline (control) or oleate in the distal gut. The amount of 5-HT collected over 90 min was measured using a 5-HT-specific ELISA test kit, as described herein above. Four dogs were tested.
# The amount of 5-HT released from the proximal gut in response to intravenous PYY or buffered saline (Control) during buffer perfusion (2 mL/min over 90 minutes) through both the duodenal and mid-gut fistulas was measured to test the hypothesis that intravenous PYY (0.8 mg/kg/h) causes the release of 5-HT in the proximal gut. 5-HT was measured as in Example 14(9) above. The amount of 5-HT released by the proximal gut increased from 140.1 μg (Control) to 463.1 μg in response to intravenous PYY.
# upper gut transit = assay: Upper gut transit time by lactulose breath hydrogen test after oleate or oleic acid; format: in vivo, human; conditions: five patients with persistent diarrhea
# From the text: In a preliminary study, five patients with persistent diarrhea for 3 to 22 months, (one each due to vagal denervation, ileal resection for Crohn's disease, and vagotomy and antrectomy, and two due to idiopathic causes) were studied. […] This test relies on the metabolism of certain carbohydrate materials (e.g. lactulose) by the microbial flora within the caecum. By generating gas which can be detected in the expired air, it is possible to make some estimation about the initial arrival of the administered material within the colon.
# Each patient received orally in random order, 0, 1.6 or 3.2 g of sodium oleate in 25 mL Ensure (Ross), followed by 100 mL water. Thirty minutes after each dose of oleate, patients received 10 g lactulose orally, followed by 25 mL water. Breath samples were collected in commercially available breath testing bags (Quintron, Menomonee Falls, Wis.) every 10-15 minutes, and the hydrogen content of the samples was measured using a breath analyzer (Microlyzer Model 12, Quintron Instruments, Menomonee Falls, Wis.), calibrated against gas samples of known hydrogen concentration. With a syringe, a 40-mL sample of the expired breath was withdrawn from the collection bag and analyzed immediately for hydrogen concentration (ppm). The hydrogen concentration value from each sample was plotted against time. Upper gut transit time was defined as the time in minutes from ingestion of lactulose (t0) until a rise of H2 of >10 ppm. Data were further analyzed using 1-way repeated measures analysis of variance (ANOVA)(See Table 4).
# The effect of an active lipid on transit time was determined in 8 normal human subjects (1 male and 7 females with a mean age of 35±2.6 years [SE]) and 45 patients (20 males and 25 females with a mean age of 49.1±2.5 [SE], age range from 18 to 90 years) with chronic diarrhea (i.e., continuous diarrhea for more than two months) associated with a wide variety of diagnoses and conditions (e.g., Crohn's disease; irritable bowel syndrome; short bowel syndrome; Indiana pouch; AIDS; ulcerative colitis; vagotomy; antrectomy; ileostomy; partial and complete colectomy; colon cancer; diabetes mellitus type 1; pancreatic insufficiency; radiation enteropathy; esophagectomy/gastric pull-up; total and subtotal gastrectomy; gastrojejunostomy), made by referring gastroenterologists. The method was the same as described above, except oleic acid (Penta Manufacturing, Livingston, N.J.) replaced sodium oleate in 50 mL of Ensure emulsion. All subjects refrained from taking antibiotics for at least two weeks before each testing date and during stool measurement periods. Patients were also instructed to refrain from anti-diarrheal drugs, laxatives, somatostatin analogues or anticholinergics for at least 48 hours before each test. In both the normal and patient groups, there was a significant slowing of upper gut transit time in response to oleic acid, as summarized in Table 5 below (p<0.001).
# SIBO [2] = assay: Neomycin treatment of SLE subjects with SIBO; format: in vivo, human
# Protocol: Fifteen of the 202 (7.4%) subjects in the database had been diagnosed with SLE. Of these 15 subjects, 13 (87%) had bacterial overgrowth, as indicated by LBHT. Four of the 15 subjects with SLE returned for follow-up LBHT and questionnaire after treatment with neomycin (500 mg twice daily for 10 days). […] (Table 3).
# SIBO [3] = assay: Case: impaired memory/mentation with SIBO, neomycin; format: in vivo, human; conditions: one patient
# From the text: The patient was a person with a history of chronic intestinal complaints over several years. They experienced altered bowel habits with alternating diarrhea and constipation with bloating, gas, distension and abdominal pain. Also, they had been diagnosed by several psychiatrists as having psychiatric problems due to decreased mentation from mild senility, and they contemplated psychiatric hospitalization.
# SIBO was detected in this patient by LBHT.
Molecule,amount of 5-HT released by the proximal gut ([1]; 60 mM oleate to distal gut without intravenous PYY) [µg],"amount of 5-HT released by the proximal gut ([1]; 60 mM oleate to distal gut, 90 min, control 100 μg) [µg]","amount of proximal gut 5-HT ([1]; oleate in distal gut, 90 min, buffer 82.7±20.53 ng, four dogs) [ng]",Transit time (mean ± SE) (upper gut transit; 1.6 g sodium oleate in 25 mL Ensure) [min],Transit time (mean ± SE) (upper gut transit; 3.2 g sodium oleate in 25 mL Ensure) [min],"VAS score Fatigue, After Antibiotic (SIBO [2]; four SLE patients)","VAS score Gas, After Antibiotic (SIBO [2]; four SLE patients)","VAS score Joint Pains, After Antibiotic (SIBO [2]; four SLE patients)","VAS score Bloating, After Antibiotic (SIBO [2]; four SLE patients, neomycin 500 mg twice daily for 10 days)",LBHT result after treatment (SIBO [2]; four SLE subjects),quality of life (SIBO [3]),eradication of SIBO condition (SIBO [3]; 500 mg twice a day for ten days)
"CCCCCCCC/C=C\CCCCCCCC(=O)[O-].[Na+] [oleate, sodium oleate]",509.8,338,211.75 ± 35.44,116 ± 11.1,140 ± 11.5,,,,,,,
neomycin,,,,,,3.5 ± 1.4,1.9 ± 1.7,0.5 ± 0.6,1.3 ± 1.3,negative for SIBO,dramatic improvement,completely eradicated
